In the supplement of paper PMC10627819:

What was measured:
Test in all cases: Bliss interaction score (quartile over a dose matrix) (fitness difference); higher = more antagonism (negative = synergy)
[1] = test system: B. subtilis 168
Method in brief: (§1)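 Values were capped at 1 after dividing OD595 at stationary-phase entry by the plate's robust no-drug mean. This ratio is fitness, and single-drug fitness was inferred from the combination data. The Bliss score is observed minus product-expected fitness, given as quartiles over technical, biological and donor/recipient replicates.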

[2] = test system: S. aureus DSM 20231
Method in brief: as §1

[3] = test system: S. aureus Newman
Method in brief: as §1

[4] = test system: S. pneumoniae D39V
Method in brief: as §1
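Further: first quartile when negative (synergy) and third quartile when positive (antagonism).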

Structure (SMILES)	Bliss interaction score [1]	Bliss interaction score [2]	Bliss interaction score [3]	Bliss interaction score [4]
CC1(C)S[C@@H]2[C@H](NC(=O)[C@H](N)c3ccc(O)cc3)C(=O)N2[C@H]1C(=O)O [Amoxicillin] + C1=CC(=CC(=C1)Cl)NN=C(C#N)C#N [CCCP]	0.115	-0.0295	-0.0504	-0.0978
CC1(C)S[C@@H]2[C@H](NC(=O)[C@H](N)c3ccc(O)cc3)C(=O)N2[C@H]1C(=O)O [Amoxicillin] + CC1(C)S[C@@H]2[C@H](NC(=O)Cc3ccccc3)C(=O)N2[C@H]1C(=O)O [PenicillinG]	-0.186	-0.0644	0.0595	-0.0781
CC1(C)S[C@@H]2[C@H](NC(=O)[C@H](N)c3ccc(O)cc3)C(=O)N2[C@H]1C(=O)O [Amoxicillin] + CC(=O)O[C@H]1C[C@@]2(C)[C@@H](C[C@@H](O)[C@H]3[C@@]4(C)CC[C@@H](O)[C@@H](C)[C@@H]4CC[C@@]32C)/C1=C(\CCC=C(C)C)C(=O)O [Fusidic acid]	0.0608	0.0361	-0.0375	0.143
CC1(C)S[C@@H]2[C@H](NC(=O)[C@H](N)c3ccc(O)cc3)C(=O)N2[C@H]1C(=O)O [Amoxicillin] + CCP(CC)CC.CC(=O)OC[C@@H]1[C@H]([C@@H]([C@H]([C@@H](O1)[S-])OC(=O)C)OC(=O)C)OC(=O)C.[Au+] [Auranofin]	-0.0508	0.0373	-0.0817	0.178
CC1(C)S[C@@H]2[C@H](NC(=O)[C@H](N)c3ccc(O)cc3)C(=O)N2[C@H]1C(=O)O [Amoxicillin] + CC[C@H]1OC(=O)[C@H](C)C(=O)[C@H](C)[C@@H](O[C@@H]2O[C@H](C)C[C@H](N(C)C)[C@H]2O)[C@](C)(OC)C[C@@H](C)C(=O)[C@H](C)[C@H]2N(CCCCn3cnc(-c4cccnc4)c3)C(=O)O[C@]12C [Telithromycin]	-0.0851	-0.0292	-0.0609	0.0336
CC1(C)S[C@@H]2[C@H](NC(=O)[C@H](N)c3ccc(O)cc3)C(=O)N2[C@H]1C(=O)O [Amoxicillin] + CC[C@H]1OC(=O)[C@H](C)[C@@H](O[C@H]2C[C@@](C)(OC)[C@@H](O)[C@H](C)O2)[C@H](C)[C@@H](O[C@@H]2O[C@H](C)C[C@H](N(C)C)[C@H]2O)[C@](C)(O)C[C@@H](C)C(=O)[C@H](C)[C@@H](O)[C@]1(C)O [Erythromycin]	0.0751	-0.023	-0.0553	0.0883
CC1(C)S[C@@H]2[C@H](NC(=O)[C@H](N)c3ccc(O)cc3)C(=O)N2[C@H]1C(=O)O [Amoxicillin] + CN(C)[C@@H]1C(O)=C(C(N)=O)C(=O)[C@@]2(O)C(O)=C3C(=O)c4c(O)ccc(Cl)c4[C@@](C)(O)[C@H]3C[C@@H]12 [Clortetracycline]	0.164	0.0294	-0.0669	0.168
CC1(C)S[C@@H]2[C@H](NC(=O)[C@H](N)c3ccc(O)cc3)C(=O)N2[C@H]1C(=O)O [Amoxicillin] + CN[C@H](CC(C)C)C(=O)N[C@H]1C(=O)N[C@@H](CC(N)=O)C(=O)N[C@H]2C(=O)N[C@H]3C(=O)N[C@H](C(=O)N[C@H](C(=O)O)c4cc(O)cc(O)c4-c4cc3ccc4O)[C@H](O[C@H]3C[C@](C)(N)[C@@H](O)[C@H](C)O3)c3ccc(c(Cl)c3)Oc3cc2cc(c3O[C@@H]2O[C@H](CO)[C@@H](O)[C@H](O)[C@H]2O[C@H]2C[C@](C)(NCc3ccc(-c4ccc(Cl)cc4)cc3)[C@@H](O)[C@H](C)O2)Oc2ccc(cc2Cl)[C@H]1O [Oritavancin]	0.0439	0.0659	0.131	-0.0312
CC1(C)S[C@@H]2[C@H](NC(=O)[C@H](N)c3ccc(O)cc3)C(=O)N2[C@H]1C(=O)O [Amoxicillin] + CO[C@@H]1[C@@H](OC(N)=O)[C@@H](O)[C@H](Oc2ccc3c(O)c(NC(=O)c4ccc(O)c(CC=C(C)C)c4)c(=O)oc3c2C)OC1(C)C [Novobiocin]	0.0931	0.0568	-0.0655	0.125
Cc1ccc(-c2cc(C(F)(F)F)nn2-c2ccc(S(N)(=O)=O)cc2)cc1 [Celecoxib] + CC[C@H]1OC(=O)[C@H](C)C(=O)[C@H](C)[C@@H](O[C@@H]2O[C@H](C)C[C@H](N(C)C)[C@H]2O)[C@](C)(OC)C[C@@H](C)C(=O)[C@H](C)[C@H]2N(CCCCn3cnc(-c4cccnc4)c3)C(=O)O[C@]12C [Telithromycin]	–	-0.162	–	–
Cc1ccc(-c2cc(C(F)(F)F)nn2-c2ccc(S(N)(=O)=O)cc2)cc1 [Celecoxib] + CN(C)C(=O)C(CCN1CCC(O)(c2ccc(Cl)cc2)CC1)(c1ccccc1)c1ccccc1 [Loperamide]	–	-0.452	–	–
CCN(CC)C(=O)/C(C#N)=C/c1cc(O)c(O)c([N+](=O)[O-])c1 [Entacapone] + CC(=O)NC[C@H]1CN(c2ccc(N3CCOCC3)c(F)c2)C(=O)O1 [Linezolid]	–	-0.178	–	–
CCN(CC)C(=O)/C(C#N)=C/c1cc(O)c(O)c([N+](=O)[O-])c1 [Entacapone] + CN1C2=CC=CC=C2N=C3C1=CC=CC3=O [Pyocyanin]	–	-0.283	–	–
CCN(CC)C(=O)/C(C#N)=C/c1cc(O)c(O)c([N+](=O)[O-])c1 [Entacapone] + CO[C@@]12[C@H](COC(N)=O)C3=C(C(=O)C(C)=C(N)C3=O)N1C[C@@H]1N[C@@H]12 [MitomycinC]	–	0.176	–	–
C[C@]12CC[C@@H]3c4ccc(O)cc4CC[C@H]3[C@@H]1CC[C@@H]2O [Estradiol] + CC1(C)S[C@@H]2[C@H](NC(=O)Cc3ccccc3)C(=O)N2[C@H]1C(=O)O [PenicillinG]	–	0.255	–	–
C[C@]12CC[C@@H]3c4ccc(O)cc4CC[C@H]3[C@@H]1CC[C@@H]2O [Estradiol] + CC[C@H]1OC(=O)[C@H](C)C(=O)[C@H](C)[C@@H](O[C@@H]2O[C@H](C)C[C@H](N(C)C)[C@H]2O)[C@](C)(OC)C[C@@H](C)C(=O)[C@H](C)[C@H]2N(CCCCn3cnc(-c4cccnc4)c3)C(=O)O[C@]12C [Telithromycin]	–	0.268	–	–
C[C@]12CC[C@@H]3c4ccc(O)cc4CC[C@H]3[C@@H]1CC[C@@H]2O [Estradiol] + CO[C@@]12[C@H](COC(N)=O)C3=C(C(=O)C(C)=C(N)C3=O)N1C[C@@H]1N[C@@H]12 [MitomycinC]	–	0.179	–	–

Structure (SMILES)	Bliss interaction score [1]	Bliss interaction score [2]	Bliss interaction score [3]	Bliss interaction score [4]
C[C@]12CC[C@@H]3c4ccc(O)cc4CC[C@H]3[C@@H]1CC[C@@H]2O [Estradiol] + COc1cc(Cc2cnc(N)nc2N)cc(OC)c1OC [Trimethoprim]	–	0.263	–	–
C[C@H]1COc2c(N3CCN(C)CC3)c(F)cc3c(=O)c(C(=O)O)cn1c23 [Levofloxacin] + Cc1c(Cl)cccc1Nc1ccccc1C(=O)O [Tolfenamic]	–	-0.164	–	–
CN(C)C(=O)C(CCN1CCC(O)(c2ccc(Cl)cc2)CC1)(c1ccccc1)c1ccccc1 [Loperamide] + CC(C)(O)c1ccccc1CC[C@@H](SCC1(CC(=O)O)CC1)c1cccc(/C=C/c2ccc3ccc(Cl)cc3n2)c1 [Montelukast]	–	-0.28	–	–
CN(C)C(=O)C(CCN1CCC(O)(c2ccc(Cl)cc2)CC1)(c1ccccc1)c1ccccc1 [Loperamide] + CCCSc1nc(N[C@@H]2C[C@H]2c2ccc(F)c(F)c2)c2nnn([C@@H]3C[C@H](OCCO)[C@@H](O)[C@H]3O)c2n1 [Ticagrelor]	–	-0.453	–	–
CN(C)C(=O)C(CCN1CCC(O)(c2ccc(Cl)cc2)CC1)(c1ccccc1)c1ccccc1 [Loperamide] + CCOC(=O)N1CCC(=C2c3ccc(Cl)cc3CCc3cccnc32)CC1 [Loratadine]	–	-0.278	–	–
CN(C)C(=O)C(CCN1CCC(O)(c2ccc(Cl)cc2)CC1)(c1ccccc1)c1ccccc1 [Loperamide] + CN1CCN(C2=Nc3ccccc3Oc3ccc(Cl)cc32)CC1 [Loxapine]	–	0.122	–	–
CN(C)C(=O)C(CCN1CCC(O)(c2ccc(Cl)cc2)CC1)(c1ccccc1)c1ccccc1 [Loperamide] + CN(Cc1cnc2nc(N)nc(N)c2n1)c1ccc(C(=O)N[C@@H](CCC(=O)O)C(=O)O)cc1 [Methotrexate]	–	-0.309	–	–
CN(C)C(=O)C(CCN1CCC(O)(c2ccc(Cl)cc2)CC1)(c1ccccc1)c1ccccc1 [Loperamide] + C[C@H]1C[C@@H]2[C@H]([C@@H](O)C[C@@]3(C)[C@H]2CC[C@]3(O)C(=O)CO)[C@@]2(C)C=CC(=O)C=C12 [Methylprednisolone]	–	-0.341	–	–
CN(C)C(=O)C(CCN1CCC(O)(c2ccc(Cl)cc2)CC1)(c1ccccc1)c1ccccc1 [Loperamide] + O=C(O)Cc1cc(I)c(Oc2ccc(O)c(I)c2)c(I)c1 [Tiratricol]	–	0.751	–	–
CN(C)C(=O)C(CCN1CCC(O)(c2ccc(Cl)cc2)CC1)(c1ccccc1)c1ccccc1 [Loperamide] + O=c1c(O)c(-c2ccc(O)c(O)c2)oc2cc(O)cc(O)c12 [Quercetin]	–	0.242	–	–
C[C@H]1C[C@@H]2[C@H]([C@@H](O)C[C@@]3(C)[C@H]2CC[C@]3(O)C(=O)CO)[C@@]2(C)C=CC(=O)C=C12 [Methylprednisolone] + CC[C@H]1OC(=O)[C@H](C)C(=O)[C@H](C)[C@@H](O[C@@H]2O[C@H](C)C[C@H](N(C)C)[C@H]2O)[C@](C)(OC)C[C@@H](C)C(=O)[C@H](C)[C@H]2N(CCCCn3cnc(-c4cccnc4)c3)C(=O)O[C@]12C [Telithromycin]	–	-0.356	–	–
CCCSc1nc(N[C@@H]2C[C@H]2c2ccc(F)c(F)c2)c2nnn([C@@H]3C[C@H](OCCO)[C@@H](O)[C@H]3O)c2n1 [Ticagrelor] + CC1=C\[C@@H](O)CC(=O)Cc2nc(co2)C(=O)N2CCC=C2C(=O)O[C@H](C(C)C)[C@H](C)/C=C/C(=O)NC\C=C\1 [Virginiamycin M1]	–	0.253	–	–
CCCSc1nc(N[C@@H]2C[C@H]2c2ccc(F)c(F)c2)c2nnn([C@@H]3C[C@H](OCCO)[C@@H](O)[C@H]3O)c2n1 [Ticagrelor] + CN(C)c1cc(NC(=O)CNC(C)(C)C)c(O)c2c1C[C@H]1C[C@H]3[C@H](N(C)C)C(O)=C(C(N)=O)C(=O)[C@@]3(O)C(O)=C1C2=O [Tigecycline]	–	0.216	–	–
CCCSc1nc(N[C@@H]2C[C@H]2c2ccc(F)c(F)c2)c2nnn([C@@H]3C[C@H](OCCO)[C@@H](O)[C@H]3O)c2n1 [Ticagrelor] + CN[C@H](CC(C)C)C(=O)N[C@H]1C(=O)N[C@@H](CC(N)=O)C(=O)N[C@H]2C(=O)N[C@H]3C(=O)N[C@H](C(=O)N[C@H](C(=O)O)c4cc(O)cc(O)c4-c4cc3ccc4O)[C@H](O)c3ccc(c(Cl)c3)Oc3cc2cc(c3O[C@@H]2O[C@H](CO)[C@@H](O)[C@H](O)[C@H]2O[C@H]2C[C@](C)(N)[C@H](O)[C@H](C)O2)Oc2ccc(cc2Cl)[C@H]1O [Vancomycin]	–	0.257	–	–
CCCSc1nc(N[C@@H]2C[C@H]2c2ccc(F)c(F)c2)c2nnn([C@@H]3C[C@H](OCCO)[C@@H](O)[C@H]3O)c2n1 [Ticagrelor] + COc1cc(Cc2cnc(N)nc2N)cc(OC)c1OC [Trimethoprim]	–	-0.152	–	–
CCCSc1nc(N[C@@H]2C[C@H]2c2ccc(F)c(F)c2)c2nnn([C@@H]3C[C@H](OCCO)[C@@H](O)[C@H]3O)c2n1 [Ticagrelor] + Oc1cc(Cl)ccc1Oc1ccc(Cl)cc1Cl [Triclosan]	–	0.247	–	–
